How the values were obtained:
VIM-1 = VIM-1 (Pseudomonas aeruginosa, UniProt A0A0F7KYQ8); assay: Enzyme activity: determination of IC50, fluorescence assay with CCF2-FA substrate; type: biochemical; conditions: enzyme 30 pM, CCF2-FA 1.25 μM, 2 hours at 25° C.; read-out: VIM1 IC50
Method in brief: (§1)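 Enzyme (1 pM NDM-1, 2 pM IMP-1, 30 pM VIM-1) incubated with inhibitor (20 to 0.00063 μM) and 1.25 μM CCF2-FA in 100 mM KH2PO4 pH 7, 0.005% Tween-20, 10 μM ZnSO4, 2 h at 25 °C. Fluorescence read at 460 nm (ex 405 nm); IC50 by 4-parameter fit.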

IMP-1 = IMP-1 (Serratia marcescens, UniProt P52699); assay: as above; type: biochemical; conditions: enzyme 2 pM, CCF2-FA 1.25 μM, 2 hours at 25° C.; read-out: IMP1 IC50
IMP-1, sequence (P52699 19-246, looked up, species assumed): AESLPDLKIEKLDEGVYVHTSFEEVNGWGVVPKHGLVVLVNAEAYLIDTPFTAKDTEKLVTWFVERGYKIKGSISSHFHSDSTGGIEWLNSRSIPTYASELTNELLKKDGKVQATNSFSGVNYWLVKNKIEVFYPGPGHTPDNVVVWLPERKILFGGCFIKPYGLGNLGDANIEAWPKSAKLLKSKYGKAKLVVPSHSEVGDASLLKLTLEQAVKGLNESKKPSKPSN
Method in brief: as §1

NDM-1 = NDM-1 (Klebsiella pneumoniae, UniProt C7C422); assay: as above; type: biochemical; conditions: enzyme 1 pM, CCF2-FA 1.25 μM, 2 hours at 25° C.; read-out: NDM1 IC50
NDM-1, sequence (C7C422 29-270, looked up, species assumed): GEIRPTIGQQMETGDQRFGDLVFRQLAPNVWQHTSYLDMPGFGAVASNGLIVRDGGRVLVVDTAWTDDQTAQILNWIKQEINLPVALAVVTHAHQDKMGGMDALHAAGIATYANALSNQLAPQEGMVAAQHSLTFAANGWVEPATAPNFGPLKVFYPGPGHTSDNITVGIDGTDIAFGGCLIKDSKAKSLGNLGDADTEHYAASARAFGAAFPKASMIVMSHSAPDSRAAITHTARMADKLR
Method in brief: as §1

[1] = test system: Serratia marcescens expressing IMP-1 (CL5741); assay: Antibiotic potentiation activity: synergistic concentration (MITC95) with imipenem, growth by OD600; type: cell-based; conditions: 95% inhibition of bacterial growth, strain CL5741
Method in brief: (§2)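 Strains grown overnight at 35° C, resuspended in saline, diluted 1:100 into 1.1×CAMHB; imipenem at 1 μg/ml or 4 μg/ml with test compound 200 μM to 0.195 μM. Incubated 22 hours to 24 hours at 35° C, OD600 read; MITC95 is lowest compound concentration inhibiting 95% of growth.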

[2] = test system: Escherichia coli expressing NDM-1 (CLB30016); assay: as above; type: cell-based; conditions: 95% inhibition of bacterial growth, strain CLB30016
Method in brief: as §2

[3] = test system: Klebsiella pneumoniae expressing VIM-1 (IHMA599644); assay: as above; type: cell-based; conditions: 95% inhibition of bacterial growth, strain IHMA599644
Method in brief: as §2

CC(C)[C@H](C(=O)O)[C@H](Cc1cccc(Br)n1)c1nnn[nH]1 [Example 92]
IC50 (VIM-1): 28 nM
IC50 (IMP-1): 5500 nM
IC50 (NDM-1): 110 nM
IMP1 SM5741 MITC95 [1]: 100 µM
NDM1 EC30016 MITC95 [2]: 9.4 µM
VIM1 KP599644 MITC95 [3]: 25 µM

CCC[C@H](C(=O)O)[C@H](Cc1ccc(C(N)=O)cn1)c1nnn[nH]1 [Example 93, (S)-2-((S)-2-(5-carbamoylpyridin-2-yl)-1-(1H-tetrazol-5-yl)ethyl) pentanoic acid]
IC50 (VIM-1): 90 nM
IC50 (IMP-1): > 20000 nM
IC50 (NDM-1): 580 nM
IMP1 SM5741 MITC95 [1]: >200 µM
NDM1 EC30016 MITC95 [2]: 6.2 µM
VIM1 KP599644 MITC95 [3]: 25 µM

CCC[C@H](C(=O)O)[C@H](Cc1cccc(C(=O)O)n1)c1nnn[nH]1 [Example 94, 6-((2S,3)-3-carboxy-2-(1H-tetrazol-5-yl)hexyl)picolinic acid]
IC50 (VIM-1): 2900 nM
IC50 (IMP-1): > 20000 nM
IC50 (NDM-1): 4500 nM
IMP1 SM5741 MITC95 [1]: >200 µM
NDM1 EC30016 MITC95 [2]: 50 µM
VIM1 KP599644 MITC95 [3]: 200 µM

CCC[C@H](C(=O)O)[C@H](Cc1ccc(-c2ccc(CN)cc2)nc1)c1nnn[nH]1 [Example 96, (4-(5-((2S,3S)-3-carboxy-2-(1H-tetrazol-5-yl)hexyl)pyridin-2-yl)phenyl)methanaminium]
IC50 (VIM-1): 9 nM
IC50 (IMP-1): 3100 nM
IC50 (NDM-1): 280 nM
IMP1 SM5741 MITC95 [1]: 37 µM
NDM1 EC30016 MITC95 [2]: 6.2 µM
VIM1 KP599644 MITC95 [3]: 18.8 µM

CCC[C@H](C(=O)O)[C@H](Cc1ccc(-c2ccc(-c3nn[nH]n3)cc2)nc1)c1nn[nH]n1 [Example 97, (S)-2-((S)-2-(6-(4-(2H-tetrazol-5-yl)phenyl)pyridin-3-yl)-1-(1H-tetrazol-5-yl)ethyl)pentanoic acid]
IC50 (VIM-1): 5.9 nM
IC50 (IMP-1): 380 nM
IC50 (NDM-1): 1.2 nM
IMP1 SM5741 MITC95 [1]: 31 µM
NDM1 EC30016 MITC95 [2]: 100 µM
VIM1 KP599644 MITC95 [3]: 200 µM

CC(C)C[C@H](C(=O)O)[C@H](Cc1ccc(-c2ccc3c(c2)CNC3)cn1)c1nnn[nH]1 [Example 99, (S)-2-((S)-2-(5-(isoindolin-5-yl)pyridin-2-yl)-1-(1H-tetrazol-5-yl)ethyl)-4-methylpentanoic acid]
IC50 (VIM-1): 350 nM
IC50 (IMP-1): 3900 nM
IC50 (NDM-1): 600 nM
IMP1 SM5741 MITC95 [1]: 75 µM
NDM1 EC30016 MITC95 [2]: 31 µM
VIM1 KP599644 MITC95 [3]: 100 µM

CC(C)C[C@H](C(=O)O)[C@H](Cc1ccc(C2CCNC2)nc1)c1nnn[nH]1 (stereo partly drawn) [Example 100, (2S)-4-methyl-2-((1S)-2-(6-(pyrrolidin-3-yl)pyridin-3-yl)-1-(1H-tetrazol-5-yl)ethyl)pentanoic acid]
IC50 (VIM-1): 4.9 nM
IC50 (IMP-1): 2900 nM
IC50 (NDM-1): 280 nM
IMP1 SM5741 MITC95 [1]: 25 µM
NDM1 EC30016 MITC95 [2]: 6.2 µM
VIM1 KP599644 MITC95 [3]: 12.5 µM

CC(C)C[C@H](C(=O)O)[C@H](Cc1ccc(C2CCNCC2)cn1)c1nnn[nH]1 [Example 101, (S)-4-methyl-2-((S)-2-(5-(piperidin-4-yl)pyridin-2-yl)-1-(1H-tetrazol-5-yl)ethyl)pentanoic acid]
IC50 (VIM-1): 13 nM
IC50 (IMP-1): 2000 nM
IC50 (NDM-1): 130 nM
IMP1 SM5741 MITC95 [1]: 18.8 µM
NDM1 EC30016 MITC95 [2]: 1.6 µM
VIM1 KP599644 MITC95 [3]: 18.8 µM

CC(C)C[C@H](C(=O)O)[C@H](Cc1ccc(C2CCNCC2)cc1)c1nnn[nH]1 [Example 102, (S)-4-methyl-2-((S)-2-(4-(piperidin-4-yl)phenyl)-1-(1H-tetrazol-5-yl)ethyl)pentanoic acid]
IC50 (VIM-1): 5.3 nM
IC50 (IMP-1): 72 nM
IC50 (NDM-1): 40 nM
IMP1 SM5741 MITC95 [1]: 2.3 µM
NDM1 EC30016 MITC95 [2]: 12.5 µM
VIM1 KP599644 MITC95 [3]: 37 µM

CC(C)C[C@H](C(=O)O)[C@H](Cc1ccc(C2CCNCC2)nc1)c1nnn[nH]1 [Example 103, (S)-4-methyl-2-((S)-2-(6-(piperidin-4-yl)pyridin-3-yl)-1-(1H-tetrazol-5-yl)ethyl)pentanoic acid]
IC50 (VIM-1): 3.4 nM
IC50 (IMP-1): 960 nM
IC50 (NDM-1): 150 nM
IMP1 SM5741 MITC95 [1]: 18.8 µM
NDM1 EC30016 MITC95 [2]: 6.2 µM
VIM1 KP599644 MITC95 [3]: 18.8 µM

CC(C)[C@H](C(=O)O)[C@H](Cc1ccc(C2CCNCC2)nc1)c1nnn[nH]1 [Example 104, (2S,3S)-2-isopropyl-4-(6-(piperidin-4-yl)pyridin-3-yl)-3-(1H-tetrazol-5-yl)butanoic acid]
IC50 (VIM-1): 14 nM
IC50 (IMP-1): 7000 nM
IC50 (NDM-1): 180 nM
IMP1 SM5741 MITC95 [1]: 37 µM
NDM1 EC30016 MITC95 [2]: 3.1 µM
VIM1 KP599644 MITC95 [3]: 18.8 µM

— patent US9839642B2, “Beta-tetrazolyl-propionic acids as metallo-beta-lactamase inhibitors” (priority 2014, dated 2017)
